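Where inhibition never reached the appropriate level, the endpoint shown equals the highest concentration tested. Otherwise, values were interpolated linearly from a five-concentration, 48-hour dose response in 96-well plates. TGI marks complete inhibition of growth.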
How the values were obtained:
Test in all cases: NCI tumour cell line growth inhibition, 48 h
[1] = test system: MALME-3M melanoma
[2] = test system: CCRF-CEM leukemia
[3] = test system: TK-10 renal
[4] = test system: HCC-2998 colon
[5] = test system: SF-268 CNS
[6] = test system: PC-3 prostate
[7] = test system: SN12C renal
[8] = test system: NCI/ADR-RES ovarian
[9] = test system: MCF7 breast
[10] = test system: NCI-H522 lung
[11] = test system: BT-549 breast
[12] = test system: UACC-62 melanoma
[13] = test system: T-47D breast
[14] = test system: A549 NSCLC
[15] = test system: SW-620 colon
[16] = test system: HS 578T breast
[17] = test system: LOX IMVI melanoma
[18] = test system: MDA-MB-435
[19] = test system: OVCAR-4 ovarian
[20] = test system: DU-145 prostate
[21] = test system: CAKI-1 renal
[22] = test system: NCI-H460 lung
[23] = test system: OVCAR-3 ovarian
[24] = test system: MDA-N
[25] = test system: IGROV1 ovarian
[26] = test system: UO-31 renal
[27] = test system: MOLT-4 leukemia
[28] = test system: SF-539 CNS
[29] = test system: EKVX NSCLC
[30] = test system: 786-0 renal
[31] = test system: HCT-116 colon
[32] = test system: SF-295 CNS
[33] = test system: SK-MEL-28 melanoma
[34] = test system: RPMI-8226 leukemia
[35] = test system: M14 melanoma
[36] = test system: SK-MEL-2 melanoma
[37] = test system: RXF 393 renal
[38] = test system: SK-OV-3 ovarian
[39] = test system: KM12 colon
[40] = test system: HT29 colon
[41] = test system: HL-60(TB) leukemia
[42] = test system: A498 renal
[43] = test system: U251 CNS
[44] = test system: SNB-75 CNS
[45] = test system: COLO 205 colon
[46] = test system: HCT-15 colon
[47] = test system: HOP-62 NSCLC
[48] = test system: K-562 leukemia
[49] = test system: NCI-H23 lung
[50] = test system: ACHN renal
[51] = test system: UACC-257 melanoma
[52] = test system: SK-MEL-5 melanoma
[53] = test system: SR leukemia
[54] = test system: OVCAR-8 ovarian
[55] = test system: MDA-MB-231 breast
[56] = test system: SNB-19 CNS
[57] = test system: OVCAR-5 ovarian

With `Nc1ccc2c(c1)nc1n2C(c2c(F)cccc2F)SC1` (stereo not drawn) the TGI [1] was > 100 µM, the TGI [2] was > 100 µM and the TGI [3] was > 100 µM. The TGI [4] was > 100 µM, the TGI [5] was > 100 µM and the TGI [6] was > 100 µM. The TGI [7] was > 100 µM, the TGI [8] was > 100 µM and the TGI [9] was > 100 µM. The TGI [10] was > 100 µM, the TGI [11] was > 100 µM and the TGI [12] was > 100 µM. The TGI [13] was > 100 µM, the TGI [14] was > 100 µM and the TGI [15] was > 100 µM. The TGI [16] was > 100 µM, the TGI [17] was > 100 µM and the TGI [18] was > 100 µM. The TGI [19] was > 100 µM, the TGI [20] was > 100 µM and the TGI [21] was > 100 µM. The TGI [22] was > 100 µM, the TGI [23] was > 100 µM and the TGI [24] was > 100 µM. For the same compound, the TGI [25] was > 100 µM, the TGI [26] was > 100 µM and the TGI [27] was > 100 µM. The TGI [28] was > 100 µM, the TGI [29] was > 100 µM and the TGI [30] was > 100 µM. The TGI [31] was > 100 µM, the TGI [32] was > 100 µM and the TGI [33] was > 100 µM. For the same compound, the TGI [34] was > 100 µM, the TGI [35] was > 100 µM and the TGI [36] was > 100 µM. The TGI [37] was > 100 µM, the TGI [38] was > 100 µM and the TGI [39] was > 100 µM. For the same compound, the TGI [40] was > 100 µM, the TGI [41] was > 100 µM and the TGI [42] was > 100 µM. The TGI [43] was > 100 µM, the TGI [44] was > 100 µM and the TGI [45] was > 100 µM. For the same compound, the TGI [46] was > 100 µM, the TGI [47] was > 100 µM and the TGI [48] was > 100 µM. The TGI [49] was > 100 µM, the TGI [50] was > 100 µM and the TGI [51] was > 100 µM. For the same compound, the TGI [52] was > 100 µM, the TGI [53] was > 100 µM and the TGI [54] was > 100 µM. The TGI [55] was > 100 µM, the TGI [56] was > 100 µM and the TGI [57] was > 100 µM.
`COC(=O)c1c(C)n([O-])c2cc(Cl)c(Cl)cc2[n+]1=O` was tested, and the TGI [1] was 31.1 µM, the TGI [2] was 42.3 µM and the TGI [3] was 61.5 µM. For the same compound, the TGI [4] was 32.1 µM, the TGI [5] was > 100 µM and the TGI [6] was > 100 µM. The TGI [7] was 84 µM, the TGI [8] was 49.5 µM and the TGI [9] was > 100 µM. The TGI [10] was 25.4 µM, the TGI [11] was > 100 µM and the TGI [12] was 40.3 µM. For the same compound, the TGI [13] was > 100 µM, the TGI [14] was 28.6 µM and the TGI [15] was > 100 µM. For the same compound, the TGI [16] was 65.6 µM, the TGI [17] was 27.8 µM and the TGI [18] was 62.8 µM. For the same compound, the TGI [19] was 52.5 µM, the TGI [20] was 38.4 µM and the TGI [21] was 61 µM. For the same compound, the TGI [22] was 29.2 µM, the TGI [23] was 52.4 µM and the TGI [24] was > 100 µM. The TGI [25] was 19.9 µM, the TGI [26] was 46.7 µM and the TGI [27] was 84.5 µM. For the same compound, the TGI [28] was 54.4 µM, the TGI [29] was 67.7 µM and the TGI [30] was > 100 µM. For the same compound, the TGI [31] was > 100 µM, the TGI [32] was > 100 µM and the TGI [33] was 92.1 µM. The TGI [34] was 19.3 µM, the TGI [35] was 76.6 µM and the TGI [36] was 82.1 µM. The TGI [37] was > 100 µM, the TGI [38] was 40 µM and the TGI [39] was 33.1 µM. The TGI [40] was 51.6 µM, the TGI [41] was 50.2 µM and the TGI [42] was 40.2 µM. The TGI [43] was > 100 µM, the TGI [45] was 25.8 µM and the TGI [46] was 37.9 µM. The TGI [47] was > 100 µM, the TGI [48] was > 100 µM and the TGI [49] was > 100 µM. The TGI [50] was 62.8 µM, the TGI [51] was 54.9 µM and the TGI [52] was 23.4 µM. For the same compound, the TGI [53] was > 100 µM, the TGI [54] was 59.3 µM and the TGI [55] was 67.2 µM. For the same compound, the TGI [56] was > 100 µM and the TGI [57] was > 100 µM.
